Results on one compound are retold here after US11844822B2, “Solid formulation and method for preventing or reducing coloration thereof” (Elobix AB, priority 2014, dated 2023).

This data set is described as follows: Storage coloration test of Elobixibat, additive and their mixtures (visual observation). The data set is classed as physicochemical. An excerpt:
1,1-dioxo-3,3-dibutyl-5-phenyl-7-methylthio-8-(N—{(R)-1′-phenyl-1′-[N′-(carboxymethyl)carbamoyl]methyl}carbamoylmethoxy)-2,3,4,5-tetrahydro-1,5-benzothiazepine (Elobixibat) and an additive shown in Table 1 were mixed so that they have a volume ratio of 1:1 based on visual quantities, and thereby, the mixtures according to Reference Examples 3 to 9 were obtained. […] The mixture of each of Reference Examples 3 to 9, only Elobixibat as Reference Example 1, and only Macrogol (polyethylene glycol) 6000 as Reference Example 2 were independently stored in an aluminum bag as an airtight container for 2 weeks under the conditions of 60° C. and 75% relative humidity. After storage, the presence or absence of coloration of the materials of Reference Examples 1 and 2 and the mixtures according to Reference Examples 3 to 9 was visually observed.

In the case of `CCCCC1(CCCC)CN(c2ccccc2)c2cc(SC)c(OCC(=O)N[C@@H](C(=O)NCC(=O)O)c3ccccc3)cc2S(=O)(=O)C1` [Reference Example 1, 1,1-dioxo-3,3-dibutyl-5-phenyl-7-methylthio-8-(N—{(R)-1′-phenyl-1′-[N′-(carboxymethyl)carbamoyl]methyl}carbamoylmethoxy)-2,3,4,5-tetrahydro-1,5-benzothiazepine], the “Coloration after storage: Before storage → after storage” value (colour before and after 2 weeks at 60° C. and 75% relative humidity in aluminum bag) was “white → white”. In addition, the Coloration after storage entry (stored in aluminum bag (airtight container) for 2 weeks at 60° C. and 75% relative humidity, visually observed) is “Not observed”.
